# In ChEMBL document CHEMBL4138123, “Design, synthesis and biological evaluation of novel pyrazolochalcones as potential modulators of PI3K/Akt/mTOR pathway and inducers of apoptosis in breast cancer cells” (Eur J Med Chem, 2017):
# Assays:
# Assay type in all cases: functional
# HT-29 [1] = test: Cytotoxicity against human HT-29 cells assessed as growth inhibition after 48 hrs by sulforhodamine B assay; conditions: HT-29, 48 h
# SF-268 = test: Cytotoxicity against human SF268 cells assessed as growth inhibition after 48 hrs by sulforhodamine B assay; conditions: SF-268, 48 h; for CC50: read-out: LC50 (the source's name)
# LOX IMVI = test: Cytotoxicity against human LOXIMVI cells assessed as growth inhibition after 48 hrs by sulforhodamine B assay
# IGROV-1 = test: Cytotoxicity against human IGROV1 cells assessed as growth inhibition after 48 hrs by sulforhodamine B assay; conditions: IGROV-1, 48 h
# OVCAR-3 = test: Cytotoxicity against human OVCAR3 cells assessed as growth inhibition after 48 hrs by sulforhodamine B assay; conditions: OVCAR-3, 48 h
# Hs-578T [2] = test: Cytotoxicity against human Hs 578T cells assessed as growth inhibition after 48 hrs by sulforhodamine B assay
# SNB-19 [3] = test: Cytotoxicity against human SNB19 cells assessed as cell growth at 0.01 uM after 48 hrs by sulforhodamine B assay relative to control; conditions: SNB-19, 48 h, read-out: Activity
# SF-539 = test: Cytotoxicity against human SF539 cells assessed as cell growth at 0.01 uM after 48 hrs by sulforhodamine B assay relative to control; conditions: SF-539, 48 h, read-out: Activity
# PC-3 [4] = test: Cytotoxicity against human PC3 cells assessed as cell growth at 0.01 uM after 48 hrs by sulforhodamine B assay relative to control; conditions: PC-3, 48 h, read-out: Activity
# DU-145 = test: Cytotoxicity against human DU145 cells assessed as cell growth at 0.01 uM after 48 hrs by sulforhodamine B assay relative to control; conditions: DU-145, 48 h, read-out: Activity
# T47D = test: Cytotoxicity against human T47D cells assessed as cell growth at 0.01 uM after 48 hrs by sulforhodamine B assay relative to control; conditions: read-out: Activity
# NCI-H322M = test: Cytotoxicity against human NCI-H322M cells assessed as cell growth at 0.1 uM after 48 hrs by sulforhodamine B assay relative to control; conditions: read-out: Activity
# NCI-H522 = test: Cytotoxicity against human NCI-H522 cells assessed as cell growth at 0.1 uM after 48 hrs by sulforhodamine B assay relative to control; conditions: NCI-H522, 48 h, read-out: Activity
# OVCAR-5 [5] = test: Cytotoxicity against human OVCAR5 cells assessed as cell growth at 0.1 uM after 48 hrs by sulforhodamine B assay relative to control; conditions: OVCAR-5, 48 h, read-out: Activity
# MCF7 = test: Cytotoxicity against human MCF7 cells assessed as cell growth at 0.1 uM after 48 hrs by sulforhodamine B assay relative to control; conditions: MCF7, 48 h, read-out: Activity
# SR [6] = test: Cytotoxicity against human SR cells assessed as cell growth at 1 uM after 48 hrs by sulforhodamine B assay relative to control; conditions: read-out: Activity
# HCC 2998 [7] = test: Cytotoxicity against human HCC2998 cells assessed as cell growth at 1 uM after 48 hrs by sulforhodamine B assay relative to control; conditions: HCC 2998, 48 h, read-out: Activity
# HT-29 [8] = test: Cytotoxicity against human HT-29 cells assessed as cell growth at 1 uM after 48 hrs by sulforhodamine B assay relative to control; conditions: HT-29, 48 h, read-out: Activity
# SW-620 = test: Cytotoxicity against human SW620 cells assessed as cell growth at 1 uM after 48 hrs by sulforhodamine B assay relative to control; conditions: SW-620, 48 h, read-out: Activity
# SNB-19 [9] = test: Cytotoxicity against human SNB19 cells assessed as cell growth at 1 uM after 48 hrs by sulforhodamine B assay relative to control; conditions: SNB-19, 48 h, read-out: Activity
# M14 = test: Cytotoxicity against human M14 cells assessed as cell growth at 1 uM after 48 hrs by sulforhodamine B assay relative to control; conditions: M14, 48 h, read-out: Activity
# 786-0 = test: Cytotoxicity against human 786-0 cells assessed as cell growth at 1 uM after 48 hrs by sulforhodamine B assay relative to control; conditions: 786-0, 48 h, read-out: Activity
# SN12C = test: Cytotoxicity against human SN12C cells assessed as cell growth at 1 uM after 48 hrs by sulforhodamine B assay relative to control; conditions: read-out: Activity
# Hs-578T [10] = test: Cytotoxicity against human Hs 578T cells assessed as cell growth at 1 uM after 48 hrs by sulforhodamine B assay relative to control; conditions: read-out: Activity
# HOP-62 = test: Cytotoxicity against human HOP62 cells assessed as cell growth at 10 uM after 48 hrs by sulforhodamine B assay relative to control; conditions: HOP-62, 48 h, read-out: Activity
# HT-29 [11] = test: Cytotoxicity against human HT-29 cells assessed as cell growth at 10 uM after 48 hrs by sulforhodamine B assay relative to control; conditions: HT-29, 48 h, read-out: Activity
# U-251 = test: Cytotoxicity against human U251 cells assessed as cell growth at 10 uM after 48 hrs by sulforhodamine B assay relative to control; conditions: U-251, 48 h, read-out: Activity
# RXF 393 = test: Cytotoxicity against human RXF393 cells assessed as cell growth at 10 uM after 48 hrs by sulforhodamine B assay relative to control; conditions: RXF 393, 48 h, read-out: Activity
# PC-3 [12] = test: Cytotoxicity against human PC3 cells assessed as cell growth at 10 uM after 48 hrs by sulforhodamine B assay relative to control; conditions: PC-3, 48 h, read-out: Activity
# MDA-MB-468 = test: Cytotoxicity against human MDA-MB-468 cells assessed as cell growth at 10 uM after 48 hrs by sulforhodamine B assay relative to control; conditions: MDA-MB-468, 48 h, read-out: Activity
# HL-60(TB) = test: Cytotoxicity against human HL-60(TB) cells assessed as cell growth at 100 uM after 48 hrs by sulforhodamine B assay relative to control; conditions: HL-60, 48 h, read-out: Activity
# SR [13] = test: Cytotoxicity against human SR cells assessed as cell growth at 100 uM after 48 hrs by sulforhodamine B assay relative to control; conditions: read-out: Activity
# HCC 2998 [14] = test: Cytotoxicity against human HCC2998 cells assessed as cell growth at 100 uM after 48 hrs by sulforhodamine B assay relative to control; conditions: HCC 2998, 48 h, read-out: Activity
# HCT-15 = test: Cytotoxicity against human HCT15 cells assessed as cell growth at 100 uM after 48 hrs by sulforhodamine B assay relative to control; conditions: HCT-15, 48 h, read-out: Activity
# SK-MEL-28 = test: Cytotoxicity against human SK-MEL-28 cells assessed as cell growth at 100 uM after 48 hrs by sulforhodamine B assay relative to control; conditions: SK-MEL-28, 48 h, read-out: Activity
# OVCAR-5 [15] = test: Cytotoxicity against human OVCAR5 cells assessed as cell growth at 100 uM after 48 hrs by sulforhodamine B assay relative to control; conditions: OVCAR-5, 48 h, read-out: Activity
# NCI/ADR-RES = test: Cytotoxicity against human NCI/ADR-RES cells assessed as cell growth at 10 uM after 48 hrs by sulforhodamine B assay relative to control; conditions: read-out: Activity
compound,measurement,setting,value
COc1ccc(C(=O)/C=C/c2cc(-c3ccc4c(c3)OCO4)n[nH]2)cc1OC,LC50,HT-29 [1],> 100 µM
same,TGI,HT-29 [1],11.3 µM
same,TGI,SF-268,7.61 µM
same,CC50,SF-268,40.5 µM
same,LC50,LOX IMVI,8.46 µM
same,TGI,LOX IMVI,4.08 µM
same,LC50,IGROV-1,68 µM
same,TGI,IGROV-1,9.2 µM
same,LC50,OVCAR-3,14.3 µM
same,TGI,OVCAR-3,4.61 µM
same,GI50,Hs-578T [2],2.69 µM
same,LC50,Hs-578T [2],> 100 µM
same,TGI,Hs-578T [2],8.21 µM
same,growth at 0.01 µM,SNB-19 [3],91%
same,growth at 0.01 µM,SF-539,98%
same,growth at 0.01 µM,PC-3 [4],99%
same,growth at 0.01 µM,DU-145,101%
same,growth at 0.01 µM,T47D,90%
same,growth at 0.1 µM,NCI-H322M,88%
same,growth at 0.1 µM,NCI-H522,87%
same,growth at 0.1 µM,OVCAR-5 [5],95%
same,growth at 0.1 µM,MCF7,94%
same,growth at 1 µM,SR [6],57%
same,growth at 1 µM,HCC 2998 [7],104%
same,growth at 1 µM,HT-29 [8],93%
same,growth at 1 µM,SW-620,92%
same,growth at 1 µM,SNB-19 [9],79%
same,growth at 1 µM,M14,100%
same,growth at 1 µM,786-0,94%
same,growth at 1 µM,SN12C,91%
same,growth at 1 µM,Hs-578T [10],94%
same,growth at 10 µM,HOP-62,-29%
same,growth at 10 µM,HT-29 [11],2%
same,growth at 10 µM,U-251,-25%
same,growth at 10 µM,RXF 393,-39%
same,growth at 10 µM,PC-3 [12],16%
same,growth at 10 µM,MDA-MB-468,-45%
same,growth at 100 µM,HL-60(TB),-38%
same,growth at 100 µM,SR [13],-35%
same,growth at 100 µM,HCC 2998 [14],-86%
same,growth at 100 µM,HCT-15,2%
same,growth at 100 µM,SK-MEL-28,-89%
same,growth at 100 µM,OVCAR-5 [15],-30%
COc1ccc(-c2cc(/C=C/C(=O)c3ccc(N)cc3)[nH]n2)cc1,GI50,HT-29 [1],2750 nM
same,LC50,HT-29 [1],74.1 µM
same,TGI,HT-29 [1],8.11 µM
same,GI50,SF-268,1810 nM
same,TGI,SF-268,5.31 µM
same,CC50,SF-268,45.7 µM
same,GI50,IGROV-1,2270 nM
same,LC50,IGROV-1,43.3 µM
same,TGI,IGROV-1,6.45 µM
same,GI50,OVCAR-3,1250 nM
same,LC50,OVCAR-3,7.09 µM
same,TGI,OVCAR-3,2.97 µM
same,GI50,Hs-578T [2],4.04 µM
same,LC50,Hs-578T [2],> 100 µM
same,TGI,Hs-578T [2],24.4 µM
same,growth at 0.01 µM,SNB-19 [3],92%
same,growth at 0.01 µM,SF-539,98%
same,growth at 0.01 µM,PC-3 [4],95%
same,growth at 0.01 µM,DU-145,104%
same,growth at 0.01 µM,T47D,98%
same,growth at 0.1 µM,NCI-H322M,89%
same,growth at 0.1 µM,NCI-H522,85%
same,growth at 0.1 µM,OVCAR-5 [5],95%
same,growth at 0.1 µM,MCF7,94%
same,growth at 1 µM,SR [6],45%
same,growth at 1 µM,HCC 2998 [7],100%
same,growth at 1 µM,HT-29 [8],97%
same,growth at 1 µM,SW-620,72%
same,growth at 1 µM,SNB-19 [9],75%
same,growth at 1 µM,M14,105%
same,growth at 1 µM,786-0,88%
same,growth at 1 µM,SN12C,76%
same,growth at 1 µM,Hs-578T [10],93%
same,growth at 10 µM,HOP-62,-15%
same,growth at 10 µM,HT-29 [11],-10%
same,growth at 10 µM,U-251,-94%
same,growth at 10 µM,NCI/ADR-RES,9%
same,growth at 10 µM,RXF 393,-47%
same,growth at 10 µM,MDA-MB-468,-62%
same,growth at 100 µM,HL-60(TB),-47%
same,growth at 100 µM,SR [13],-61%
same,growth at 100 µM,HCC 2998 [14],-93%
same,growth at 100 µM,HCT-15,-59%
same,growth at 100 µM,SK-MEL-28,-81%
same,growth at 100 µM,OVCAR-5 [15],-86%
